Tests used:
[1] = tested on: LQT3 SCN5A N406K hiPSC-CMs; test: Optical voltage assay, second genetic LQT3 model; format: cell-based, human; conditions: result in words
[2] = tested on: HD.113 hiPSC-CMs treated with ATX-II; test: High dose ATX-II induced arrhythmia in healthy donor hiPSC-CMs; format: cell-based, human; conditions: ATX-II 1 μM; result in words
[3] = tested on: genetic and pharmacological LQT3 hiPSC-CM models; test: Optical voltage assay across genetic and pharmacological LQT3 hiPSC-CM models; format: cell-based, human; conditions: for general APD effect at low or high doses: summary over all models, result in words
[4] = molecular target: SCN5A L409P/R588 mutant (Homo sapiens, UniProt Q14524, H558R/L409P); test: Automated planar patch clamp of LQT3 mutant channel in HEK293T cells; format: cell-based; conditions: for preference of block between INaP and INaL: result in words
[5] = tested on: HD.CDI hiPSC-CMs; test: High throughput optical action potential recording, healthy donor hiPSC-CMs; conditions: result in words

Chain of SCN5A L409P/R588 mutant (Q14524 whole entry L409P/H558R): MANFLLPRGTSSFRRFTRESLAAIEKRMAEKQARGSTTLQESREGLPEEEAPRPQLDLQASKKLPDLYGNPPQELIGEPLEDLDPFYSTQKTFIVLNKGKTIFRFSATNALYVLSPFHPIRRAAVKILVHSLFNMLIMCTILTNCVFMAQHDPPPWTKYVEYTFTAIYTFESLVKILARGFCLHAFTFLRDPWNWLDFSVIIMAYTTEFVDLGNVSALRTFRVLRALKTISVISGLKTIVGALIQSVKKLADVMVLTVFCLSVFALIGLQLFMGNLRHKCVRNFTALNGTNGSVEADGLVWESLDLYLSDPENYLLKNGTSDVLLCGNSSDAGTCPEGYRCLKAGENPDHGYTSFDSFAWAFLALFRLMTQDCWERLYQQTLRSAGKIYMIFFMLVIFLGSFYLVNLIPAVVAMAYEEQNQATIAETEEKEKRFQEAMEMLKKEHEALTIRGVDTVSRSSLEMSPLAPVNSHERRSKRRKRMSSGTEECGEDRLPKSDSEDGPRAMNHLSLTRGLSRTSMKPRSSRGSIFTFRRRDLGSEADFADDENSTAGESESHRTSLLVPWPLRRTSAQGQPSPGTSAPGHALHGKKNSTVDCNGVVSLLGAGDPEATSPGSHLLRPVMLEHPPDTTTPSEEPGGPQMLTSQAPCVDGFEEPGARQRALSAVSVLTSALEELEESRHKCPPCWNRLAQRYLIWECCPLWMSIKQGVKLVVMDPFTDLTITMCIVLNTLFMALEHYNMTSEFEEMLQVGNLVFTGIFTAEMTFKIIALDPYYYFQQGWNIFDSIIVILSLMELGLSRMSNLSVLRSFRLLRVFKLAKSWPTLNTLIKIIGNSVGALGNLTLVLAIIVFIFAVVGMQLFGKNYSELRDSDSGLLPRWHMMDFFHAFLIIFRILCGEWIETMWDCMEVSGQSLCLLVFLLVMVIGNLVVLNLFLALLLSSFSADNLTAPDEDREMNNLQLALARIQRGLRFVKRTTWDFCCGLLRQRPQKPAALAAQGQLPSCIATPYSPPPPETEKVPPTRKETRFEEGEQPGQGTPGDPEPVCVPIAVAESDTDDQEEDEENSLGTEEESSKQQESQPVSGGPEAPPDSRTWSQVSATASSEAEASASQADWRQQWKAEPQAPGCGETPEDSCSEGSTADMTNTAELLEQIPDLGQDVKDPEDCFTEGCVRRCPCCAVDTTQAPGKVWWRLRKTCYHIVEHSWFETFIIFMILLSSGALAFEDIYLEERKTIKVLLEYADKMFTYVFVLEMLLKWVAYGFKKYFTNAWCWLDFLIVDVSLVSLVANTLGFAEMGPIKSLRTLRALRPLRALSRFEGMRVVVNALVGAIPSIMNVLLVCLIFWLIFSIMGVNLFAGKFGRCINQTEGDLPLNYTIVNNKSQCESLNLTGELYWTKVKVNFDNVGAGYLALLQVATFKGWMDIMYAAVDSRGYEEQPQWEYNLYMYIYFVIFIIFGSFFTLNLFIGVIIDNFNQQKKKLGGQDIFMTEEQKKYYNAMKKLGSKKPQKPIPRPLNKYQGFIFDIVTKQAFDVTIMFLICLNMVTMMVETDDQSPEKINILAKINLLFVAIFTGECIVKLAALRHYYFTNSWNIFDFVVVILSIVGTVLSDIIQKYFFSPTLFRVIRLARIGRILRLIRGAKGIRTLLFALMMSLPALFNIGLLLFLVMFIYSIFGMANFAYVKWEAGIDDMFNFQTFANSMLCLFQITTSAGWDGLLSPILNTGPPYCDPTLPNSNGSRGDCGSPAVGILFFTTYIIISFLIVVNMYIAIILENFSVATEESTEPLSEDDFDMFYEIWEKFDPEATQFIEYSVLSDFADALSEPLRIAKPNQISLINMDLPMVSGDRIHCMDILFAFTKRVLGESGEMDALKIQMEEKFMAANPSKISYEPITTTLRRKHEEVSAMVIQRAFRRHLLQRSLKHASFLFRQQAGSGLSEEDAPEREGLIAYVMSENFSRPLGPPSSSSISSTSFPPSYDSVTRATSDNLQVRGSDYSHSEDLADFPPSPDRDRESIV

Question: Which results are given for `FC(F)(F)Oc1ccc(-c2ccc3nnc(C(F)(F)F)n3c2)cc1` [GS-967]?
Answer: suppression of spontaneous arrhythmia [1]: effective; suppression of ATX-II induced arrhythmia [2]: effective; general APD effect at low or high doses [3]: most pronounced shortening at low doses

Question: For `Cc1ccccc1OCC(N)c1ccccc1` (stereo not shown) [MexA2, 1-Phenyl-2-(o-tolyloxy)ethan-1-amine], which “preference of block between INaP and INaL” value [4] is on record?
Answer: The value was “preferentially blocked INaP over INaL”.

Question: Which results are given for `Cc1cc(C)cc(OCC(N)c2ccccc2)c1` (stereo not shown) [MexA3]?
Answer: block of INaL [4]: did not block INaL; preference of block between INaP and INaL [4]: preferentially blocked INaP over INaL

Question: How did the “proarrhythmic response (APD prolongation, EADs)” value [5] turn out when `NC(COc1ccccc1C(F)(F)F)c1ccccc1` (stereo not shown) [MexA4, 1-Phenyl-2-(2-(trifluoromethyl)phenoxy)ethan-1-amine] was run?
Answer: The value was “not proarrhythmic”.

Question: How did the “suppression of spontaneous arrhythmia” value [1] turn out when `COCCNC(COc1cccc(C)c1C)c1ccccc1` (stereo not shown) [MexA5, 2-(2,3-dimethylphenoxy)-N-(2-methoxyethyl)-1-phenylethan-1-amine] was run?
Answer: Its value is “terminated spontaneous arrhythmias”.

Question: And the “general APD effect at low or high doses” value [3]?
Answer: Its value is “most pronounced shortening at low doses”.

Question: And the “asystole effect, change with N-ethyl methoxy substitution” value ([5]; high concentrations)?
Answer: The value was “decreased this effect”.

Question: With `Cc1cccc(C)c1OCC(C)N` (stereo not shown) [mexiletine, Mexiletine] as the compound, how does the APD change [1] read?
Answer: The APD change was “weakly”.

Question: What about the “APD change across LQT3 hiPSC-CM models” value [3] of the same compound?
Answer: The value was “substantially prolonged the AP in all hiPSC-CMs examined”.

Question: And the “APD shortening in pharmacological LQT3 models” value [3]?
Answer: The value was “not in all the pharmacological models”.

Question: And the “general APD effect at low or high doses” value [3]?
Answer: Its value is “prolonged the APD at high doses”.

Question: What about the “proarrhythmic response (APD prolongation, EADs)” value [5] of the same compound?
Answer: Its value is “proarrhythmic response”.

Question: How did the APD change [1] turn out when `COc1ccccc1OCC(O)CN1CCN(CC(=O)Nc2c(C)cccc2C)CC1` (stereo not shown) [ranolazine] was run?
Answer: Its APD change is “did not shorten APD and induced EADs at high doses”.

Question: What about the “suppression of spontaneous arrhythmia” value [1] of the same compound?
Answer: The value was “blocked arrhythmia only in the genetic LQT3 model”.

Question: What about the “suppression of ATX-II induced arrhythmia” value [2] of the same compound?
Answer: The value was “blocked arrhythmia only in the genetic LQT3 model”.

Question: What about the “general APD effect at low or high doses” value [3] of the same compound?
Answer: The value was “prolonged the APD at high doses”.
